Entries after “also recorded” stand apart in the source; their conditions may differ.
Tests used:
[1] = tested on: Vth stadium L. oleracea larvae; test: Insect bioassay 1: artificial diet feeding, 24 h; type: in vivo, Lacanobia oleracea; settings: 1.5% of dietary protein (1.5 mg/5 g diet), 24 h exposure, n=7
Method: (§1) A potato leaf based artificial diet (24) was used to assay recombinant proteins against newly moulted Vth stadium L. oleracea which were starved for 24 h prior to exposure to diets. To encourage feeding, sucrose was incorporated at 0.05% (w/w) in assays 2 A and B and at 0.5% (w/w) in assay 3. Individual larvae were maintained in clear plastic pots containing moist filter paper to prevent diet desiccation. Larval wet weights (−/+0.1 mg) were recorded before, during, and after exposure to treatments, and diet consumption was estimated on a wet weight basis. The amounts of recombinant proteins added to diets were based on activity values derived from agglutination assays. Larvae (n=7 per treatment) were exposed to control diet; control diet containing ammonia (0.0002 v/w); diet containing recombinant GNA at a concentration of approx. 1.5% (w/w) of dietary protein (1.5 mg/5 g diet wet weight) and diet containing recombinant FP at a concentration of approx. 1.5% (w/w) of dietary protein for 24 h.

[2] = tested on: Vth instar L. oleracea larvae; test: Insect bioassay 2A: artificial diet feeding, 3 days; type: in vivo, Lacanobia oleracea; settings: 0.5% of dietary protein (0.5 mg/5 g diet), 3 days exposure, n=8
Method: as §1, with “assays.” for “assays. Larvae (n=7 per treatment) were exposed to control diet; control diet containing ammonia (0.0002 v/w); diet containing recombinant GNA at a concentration of approx. 1.5% (w/w) of dietary protein (1.5 mg/5 g diet wet weight) and diet containing recombinant FP at a concentration of approx. 1.5% (w/w) of dietary protein for 24 h.”
Larvae (n=8 per treatment) were exposed for 3 days to control diet; control diet containing ammonia; diet containing native GNA at approx. 0.5% (w/w) of dietary protein: diet containing native GNA and synthetic Manse-AS at a total concentration of approx. 0.5% (w/w) (i.e. ratio of GNA: Manse-AS equivalent to FP and diet containing FP at approx. 0.5% (w/w) of dietary protein.

| Substance | mean increase/decrease in weight of larvae [1] | increase/decrease in mean wet weight of larvae [2] |
| --- | --- | --- |
| GNA: Galanthus nivalis agglutinin (snowdrop lectin); standard GNA obtained from Vector Laboratories | more than 50% | four fold increase in weight; also recorded: fourfold increase in weight |
| recombinant GNA: Galanthus nivalis agglutinin (snowdrop lectin), 109 residues, expressed in E. coli with N-terminal His tag, SEQ ID NO: 2 | more than 50% | – |
